Assay results: ChEMBL document CHEMBL1201862, “PubChem BioAssay data set” (2004)
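Values below derive from 48-hour exposures of cells grown in 96-well plates, with endpoints linearly interpolated between the two concentrations bracketing the appropriate inhibition level. At the GI50, growth is halved.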 Activity calls are given as the source filed them. No stated cut-off is given here; in the data, active = GI50 up to about 1.1 µM and inactive = higher.

How the values were obtained:
Test in all cases: inhibition of tumour cell growth, NCI panel, 48 h
[1] = tested on: ACHN
[2] = tested on: CAKI-1
[3] = tested on: COLO 205
[4] = tested on: HCC 2998
[5] = tested on: KM12
[6] = tested on: LOX IMVI
[7] = tested on: M14
[8] = tested on: MCF7
[9] = tested on: NCI-H226
[10] = tested on: NCI-H23
[11] = tested on: OVCAR-4
[12] = tested on: OVCAR-8
[13] = tested on: RXF 393
[14] = tested on: SF-268
[15] = tested on: SR
[16] = tested on: SW-620
[17] = tested on: TK-10
[18] = tested on: U-251
[19] = tested on: UACC-257
[20] = tested on: UO-31

Row | Structure (SMILES) | GI50 [1] | GI50 [2] | GI50 [3] | GI50 [4] | GI50 [5] | GI50 [6] | GI50 [7] | GI50 [8] | GI50 [9] | GI50 [10] | GI50 [11] | GI50 [12] | GI50 [13] | GI50 [14] | GI50 [15] | GI50 [16] | GI50 [17] | GI50 [18] | GI50 [19] | GI50 [20]
1 | O=c1c2ccccc2c2ccccc2c(=O)n1Cc1ccc2c(c1)OCO2 | 45.4 µM (inactive) | 69.7 µM (inactive) | 34 µM (inactive) | 25.1 µM (inactive) | 19.5 µM (inactive) | 40 µM (inactive) | 26.9 µM (inactive) | 38.9 µM (inactive) | 56.1 µM (inactive) | 24.7 µM (inactive) | > 67.3 µM (inactive) | 45.7 µM (inactive) | 36 µM (inactive) | 59.7 µM (inactive) | 4.91 µM (inactive) | 33.3 µM (inactive) | > 100 µM (inactive) | > 62.2 µM (inactive) | 57.1 µM (inactive) | 49.5 µM (inactive)
2 | C=C1C(=O)O[C@H]2C/C(C)=C/CC[C@]3(C)CCC[C@](C)(CC[C@@H]12)O3 | 8.99 µM (inactive) | 12 µM (inactive) | 6.4 µM (inactive) | 7.24 µM (inactive) | 8.43 µM (inactive) | 12.2 µM (inactive) |  | 13 µM (inactive) | 11.9 µM (inactive) | 11.3 µM (inactive) | 15.1 µM (inactive) | 7.64 µM (inactive) | 8.09 µM (inactive) | 7.8 µM (inactive) | 4.61 µM (inactive) | 7.71 µM (inactive) | 8.38 µM (inactive) | 8.97 µM (inactive) | 8.85 µM (inactive) | 8.69 µM (inactive)
3 | COC(=O)C1(Cc2ccc3c(c2)CCC3)Cc2ccc3c(c2C1O)CCC3 (configuration not stated) | 13 µM (inactive) | 14.2 µM (inactive) | 12.9 µM (inactive) | 17.1 µM (inactive) | 14.8 µM (inactive) | 12.6 µM (inactive) |  | 12.9 µM (inactive) | 18.5 µM (inactive) | > 10 µM (inactive) | 5.79 µM (inactive) | 17.3 µM (inactive) | 14.5 µM (inactive) | 21 µM (inactive) | 12 µM (inactive) | 14.5 µM (inactive) | 17.3 µM (inactive) | 15.8 µM (inactive) | 10.7 µM (inactive) | 10.7 µM (inactive)
4 | Cc1nc2cc3ccccc3cc2[nH]c1=O |  | 38.1 µM (inactive) | > 100 µM (inactive) | > 100 µM (inactive) | 85.1 µM (inactive) | > 100 µM (inactive) | > 100 µM (inactive) | 30.2 µM (inactive) | 53.2 µM (inactive) | 89.5 µM (inactive) | 51.1 µM (inactive) | 70.5 µM (inactive) | 47.5 µM (inactive) | 39.3 µM (inactive) | 78.3 µM (inactive) | > 100 µM (inactive) | 80.2 µM (inactive) | 55.1 µM (inactive) | > 100 µM (inactive) | 54.8 µM (inactive)
5 | N#Cc1cc([N+](=O)[O-])ccc1NC(=O)/C(=N\NC(=O)c1ccncc1)C(c1cnc2ccc([N+](=O)[O-])cc2n1)[N+](=O)[O-] (configuration not stated) | 2.54 µM (inactive) | 5.98 µM (inactive) | 5.69 µM (inactive) | 9.27 µM (inactive) | 2.39 µM (inactive) | 0.759 µM (active) | 1.63 µM (inactive) | 1.55 µM (inactive) | 2.45 µM (inactive) | 0.91 µM (active) | 2.09 µM (inactive) | 3.1 µM (inactive) | 4.44 µM (inactive) | 2.86 µM (inactive) | 4.24 µM (inactive) | 2.4 µM (inactive) | 14.2 µM (inactive) | 2.15 µM (inactive) | 1.55 µM (inactive) | 2.31 µM (inactive)
6 | COc1cc2nc(Cl)nc(NS(=O)(=O)c3cc4ccccc4s3)c2cc1OC | 30.8 µM (inactive) | 33.3 µM (inactive) | 38.1 µM (inactive) | 19 µM (inactive) | 23.3 µM (inactive) | 23.3 µM (inactive) | 26.2 µM (inactive) | 31.6 µM (inactive) | 36.8 µM (inactive) | 25.7 µM (inactive) | 27.4 µM (inactive) | 33 µM (inactive) | 16.6 µM (inactive) | 35.3 µM (inactive) | 23.4 µM (inactive) | 17.1 µM (inactive) | 28.3 µM (inactive) | 27.3 µM (inactive) | 32.4 µM (inactive) | 16.4 µM (inactive)
7 | CC1=NN(c2ccc(S(=O)(=O)O)cc2)C2(C1)C(Cl)C(=O)N2c1nc2ccccc2s1 (configuration not stated) | > 100 µM (inactive) | > 100 µM (inactive) | > 100 µM (inactive) | > 100 µM (inactive) | > 100 µM (inactive) | 57.8 µM (inactive) | > 100 µM (inactive) | > 100 µM (inactive) | 21.4 µM (inactive) | > 100 µM (inactive) | > 100 µM (inactive) | > 100 µM (inactive) | > 100 µM (inactive) | > 100 µM (inactive) | > 100 µM (inactive) | > 100 µM (inactive) | > 100 µM (inactive) | > 100 µM (inactive) | > 100 µM (inactive) | > 100 µM (inactive)
